Here are results for seven molecules from patent US7999099B2, “Modified 5′-phosphonate azidothymidine—potential anti-viral preparations” (priority 2004, dated 2011).

Read-outs that look alike come from different tables or passages of the source. Bounds are passed on as bounds.

For one data set, the system named is GKV-4046 HIV-1. The data set is described as follows: Inhibition of HIV-1 replication in MT-4 cell culture (p24 accumulation, cell viability by MTT). The data set is classed as cell-based, type 1 human immunodeficiency virus. The conditions noted are these: MT-4 cells. On the procedure: Inhibition of HIV replication was studied by cultivating pre-infected lymphoid cells of MT-4 cell line in the presence of the investigational compounds in the concentration of 0.001-100 µg per 1 ml of culture medium during one passage, i.e. 4 days.
Inhibition of HIV replication in a sensitive cell culture is assessed by the reduction of p24 virus-specific protein accumulation (according to immunoenzyme assay) as well as by the increase of cell viability in the presence of the drug as compared to the control on the 4th day of cultivation using bromide 3-(4,5-dimethylthiasol-2-yl)-2,5-diphenuyltetrasolium (MTT).
The effect of the investigational compounds of HIV-1 replication in MT-4 cell culture was studied using a known method.
The therapeutic index, or the index of selectivity (IS), is calculated as the ratio of 50% toxic concentration of a compound to its 50% effective dose (the results are presented in table 1).

Data set [1] can be described thus: Pharmacokinetics of generated AZT in dog blood after oral administration. The data set is classed as in vivo. On the procedure: A dog weighing 12 kg was orally given 250 mg of the investigational compound (mixed with curd). Blood samples (1 ml) were taken at defined intervals from the femoral vein. The samples were centrifuged (10 minutes at 2000 rpm) and the supernatant was separated. Oxetan (internal standard, 0.25 […]g) and methanol (0.75 ml) were added to aliquots of the supernatant (0.25 ml). The resulting mixture was centrifuged for 3 minutes at 5000 rpm. The supernatant was separated and evaporated in air flow at 40° C., water (1 ml) was added to the residue. Aliqutes (20[…]1) were analyzed by HPLC in Gynkotec chromatograph (Germany) using Ultrasphere ODC Beckman analytical column (USA). Eluent: 6% acetonitrile in 0.1% H3PO4 (pH 2.1) in the presence of 0.15% triethylamine; detection at […]max 265 nm at 30° C.

In the case of `Cc1cn([C@H]2C[C@H](N=[N+]=[N-])[C@@H](CO[PH](=O)O)O2)c(=O)[nH]c1=O` [Nikavir, 5′-hydrohenphosphonate of 3′-azido-2′,3′-dideoxythymidine], in the data set with GKV-4046 HIV-1, the “IS (index of selectivity, ratio of 50% toxic concentration to 50% effective dose)” value is recorded as 2015. Besides, in data set [1] (in vivo, po, 250 mg), the AUC is 16600 ng·h/mL, the CL worked out at 15.0 L/h, the Cmax is 1890 ng/mL and the mean residence time (MRT) was 10.4 h. In data set [1] (in vivo, po, 250 mg), the T1/2 is 7.2 h and the Tmax stood at 4.0 h.
For the molecule “5′-Methoxymethylphosphonyl-3′-azido-3′-deoxythymidine”, the “IS (index of selectivity, ratio of 50% toxic concentration to 50% effective dose)” value in the data set on GKV-4046 HIV-1 is more than 100.
On to “5′-Chloromethylphosphonyl-3′-azido-3′-deoxythymidine [Ia]”, for which the “IS (index of selectivity, ratio of 50% toxic concentration to 50% effective dose)” value with GKV-4046 HIV-1 is recorded as more than 3000.
Turning to `Cc1cn([C@H]2C[C@H](N=[N+]=[N-])[C@@H](CO)O2)c(=O)[nH]c1=O` [AZT, 3′-azido-3′-deoxythymidine], in data set [1] (in vivo, of azidothymidine, oral, amount equivalent to 250 mg of AZT), the half-life was 5.2 h. In addition, the AUC in data set [1] (in vivo, of azidothymidine, oral, amount equivalent to 250 mg of AZT, read-out: AUC) came out at 58800 ng·h/mL. In addition, the Cmax in data set [1] (in vivo, of azidothymidine, oral, amount equivalent to 250 mg of AZT, read-out: Cmax) came out at 9770 ng/mL. Moreover, the MRT in data set [1] (in vivo, of azidothymidine, oral, amount equivalent to 250 mg of AZT, read-out: MRT) was 7.5 h. Moreover, in data set [1] (in vivo, of azidothymidine, oral, amount equivalent to 250 mg of AZT, read-out: Tmax), the Tmax was 2.5 h. In addition, the CL in data set [1] (of azidothymidine, oral, amount equivalent to 250 mg of AZT) stood at 4.2 L/h.
On to “5′-Iodomethylphosphonyl-3′-azido-3′-deoxythymidine [Ib]”, for which the “IS (index of selectivity, ratio of 50% toxic concentration to 50% effective dose)” value in the data set on GKV-4046 HIV-1 is given as more than 100.
The same measure, in the same setting: the result for “5′-Aminocarbonylphosphonyl-3′-azido-3′-deoxythymidine [Ie]” reads more than 3000; that for “5′-Hydroxymethylphosphonyl-3′-azido-3′-deoxythymidine [Ic]”, more than 1600.
